Assay results: patent EP3017816A2, “DIINDOLYLMETHANE-BASED MEDICINAL AGENT AND USE THEREOF TO TREAT INFLUENZA AND VIRAL RESPIRATORY INFECTIONS” (Kiselev, Vsevolod Ivanovich, priority 2013, dated 2014)
Several values for one entry are separate records, joined by “and”; a condition that tells them apart may be missing. Equal values may be shown once.

Key:
[1] = Concentration of diindolylmethane in volunteers' plasma after oral administration; assay type: in vivo; conditions: same dosage; range of concentrations approximately 300 ng/ml
Protocol: In all the clinical studies, pharmacokinetics comparison was made between the DIM preparation of the invention on the basis of A-type fish oil with the concentration 1-10% of preparation, the DIM preparation on the basis of Omega 3 and the crystalline DIM in the same dosages. […] The maximum DIM concentration in blood was observed two hours after the administration of preparations and achieved approximately 300 ng/ml.

[2] = test system: A/Aichi/2/68 (H3N2) influenza virus; test: Virus titration in lung tissue of infected mice (CAM fragments, hemagglutination reaction); assay type: in vivo, white mice; conditions: 3rd day
[3] = test system: A/Aichi/2/68 (H3N2) influenza virus; test: Experimental lethal influenza infection in mice: mortality, average life, protection index; assay type: in vivo, white mice; conditions: for Average life / Protection index, % / total mortality (number of dead/infected): reference preparation, dose not given; for total mortality (number of dead/infected): day 15
[4] = test system: A/Aichi/2/68 (H3N2) influenza virus; test: Surface of chronic postinfluenzal pneumonia foci in lungs of surviving mice; assay type: in vivo, white mice; conditions: for Surface of chronic pneumonia foci (% of total surface of the lung surface): reference preparation, dose not given, survivors day 15
Protocol: The animals that survived to the 15th day after infection were autopsied and their lungs were studied macroscopically. Visual evaluation was carried out of the surface of chronic foci of postinfluenzal pneumonia remaining in the lung tissue of mice after the acute stage of the influenza infection within the entire life of the animal. The surface of the lesion foci was expressed in percentage to the entire lung surface.

Row | Compound | detection of DIM in the patients' plasma [1] | Infectious titer of the influenza virus (lg EID50) in lungs ([2]; 60 mg/kg orally, virus dosage 1, group average) | Infectious titer of the influenza virus (lg EID50) in lungs ([2]; 60 mg/kg orally, virus dosage 1, individual animals) | Infectious titer of the influenza virus (lg EID50) in lungs ([2]; 60 mg/kg orally, virus dosage 2, group average) | Infectious titer of the influenza virus (lg EID50) in lungs ([2]; 60 mg/kg orally, virus dosage 2, individual animals) | survival of infected animals (Fig. 2) ([3]; virus dosage 10 LD50) | effect on the surface of chronic pneumonia foci [4] | Surface of chronic pneumonia foci (% of total surface of the lung surface) ([4]; viral dosage 1 LD50) | Surface of chronic pneumonia foci (% of total surface of the lung surface) ([4]; viral dosage 10 LD50) | Infectious titer of the influenza virus (lg EID50) in lungs ([2]; 50 mg/kg orally, virus dosage 1, group average) | Infectious titer of the influenza virus (lg EID50) in lungs ([2]; 50 mg/kg orally, virus dosage 1, individual animals) | Infectious titer of the influenza virus (lg EID50) in lungs ([2]; 50 mg/kg orally, virus dosage 2, group average) | Infectious titer of the influenza virus (lg EID50) in lungs ([2]; 50 mg/kg orally, virus dosage 2, individual animals) | Average life ([3]; virus dosage 1 LD50) | Protection index, % ([3]; virus dosage 1 LD50) | total mortality (number of dead/infected) ([3]; virus dosage 1 LD50) | Average life ([3]; virus dosage 10 LD50) | Protection index, % ([3]; virus dosage 10 LD50) | total mortality (number of dead/infected) ([3]; virus dosage 10 LD50) | protection index ([3]; text summary over both virus dosages)
1 | c1ccc2c(Cc3c[nH]c4ccccc34)c[nH]c2c1 [crystalline DIM, 3,3-diindolylmethane] | did not enable one to discover it in this range of concentrations | 3.8±0.17 lg EID50 | 4.0 lg EID50 (2×) and 3.5 lg EID50 | 4.5±0.29 lg EID50 | 5.0 lg EID50 and 4.0 lg EID50 and 4.5 lg EID50 | had no practical influence on the survival | – | – | – | – | – | – | – | – | – | – | – | – | – | –
2 | CC(N)C12CC3CC(CC(C3)C1)C2 (centres unmarked) [rimantadine] | – | – | – | – | – | – | reduced this index for each infecting dosage | 31±11.8% | 27±6.8% | 2.3±0.17 lg EID50 | 2.0 lg EID50 and 3.0 lg EID50 and 2.5 lg EID50 | 2.7±0.17 lg EID50 | 2.5 lg EID50 (2×) and 3.0 lg EID50 | 14.4 days | 80% | 1/10 | 13.9 days | 78% | 2/10 | 78-80%
